Reference: PMC9212739 (Antiviral Research, 2022)
Values joined by “and” are separate entries in the source; they are usually repeats but may differ in a detail not shown here. Equal values may be shown once. Read-outs that look alike come from different tables or passages of the source.

Key:
LCMV ExoN = LCMV ExoN (Mammarenavirus choriomeningitidis, UniProt P09992); experiment: biochemical; design: species or system Lymphocytic Choriomeningitis virus
MACV ExoN = MACV ExoN (Mammarenavirus machupoense, UniProt P26578); experiment: biochemical; design: species or system Machupo virus
[1] = target: SARS-CoV-2 ExoN nsp14/nsp10 complex (Severe acute respiratory syndrome coronavirus 2, UniProt P0DTD1); experiment: biochemical; conditions: read-out: % inhibition of ExoN at 5 μM
LCMV minigenome = type: cell-based
[2] = test system: SARS-CoV-2 in VeroE6 TMPRSS2 cells; experiment: microbe, parasite or virus in culture; type: cell-based
[3] = test system: LCMV, MACV and SARS-CoV-2 ExoN; type: biochemical
in vitro = conditions: african green monkey, veroe6 tmprss2 cells
[4] = read-out: % inhibition of ExoN at 5 μM
[5] = Severe acute respiratory syndrome coronavirus 2, VeroE6/TMPRSS2

MACV ExoN, sequence (P26578 355-564 limits assumed): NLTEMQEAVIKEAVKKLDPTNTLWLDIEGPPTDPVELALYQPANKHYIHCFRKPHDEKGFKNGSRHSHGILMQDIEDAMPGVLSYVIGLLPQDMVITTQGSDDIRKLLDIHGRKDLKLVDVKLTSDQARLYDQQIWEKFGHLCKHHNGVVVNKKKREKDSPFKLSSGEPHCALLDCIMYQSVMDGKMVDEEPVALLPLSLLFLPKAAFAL
LCMV ExoN, sequence (P09992 357-558 limits assumed): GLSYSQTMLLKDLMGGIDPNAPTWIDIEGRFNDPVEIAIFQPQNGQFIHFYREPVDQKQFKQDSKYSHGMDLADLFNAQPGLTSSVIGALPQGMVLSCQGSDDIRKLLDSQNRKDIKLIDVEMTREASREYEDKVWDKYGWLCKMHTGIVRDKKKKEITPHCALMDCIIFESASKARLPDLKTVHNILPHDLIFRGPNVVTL

Row | Structure (SMILES) | IC50 (LCMV ExoN; IC50) | inhibition at 5 µM (LCMV ExoN; [4]) | IC50 (MACV ExoN; IC50) | inhibition at 5 µM (MACV ExoN; [4]) | inhibition at 5 µM [1] | antiviral effect (LCMV minigenome) | EC50 [2] | EC50 [2, 5] | % inhibition of ExoN at 20 μM, all ExoN [3] | CC50 at 48 h (in vitro)
1 | O=C(O)C1=CC(=C(c2ccc(O)c(C(=O)O)c2)c2ccc(O)c(C(=O)O)c2)C=CC1=O [Compound 40, Aurintricarboxyclic acid] | 7.05 µM and 7.1 µM | 52% | 5.57 µM and 5.6 µM | 39% | 23% | no antiviral effect | 27 µM | 27.2 ± 20.7 µM | 100% | > 50 µM
2 | CCC(CC)COC(=O)[C@H](C)N[P@](=O)(OC[C@H]1O[C@@](C#N)(c2ccc3c(N)ncnn23)[C@H](O)[C@@H]1O)Oc1ccccc1 [Remdesivir] |  |  |  |  |  |  |  | 1.5 ± 1.1 µM |  | 
